This data set can be described thus: Stability Test: storage, factor of decomposition determined by HPLC. The format is physicochemical. Here is the method:
Used were 100 g of clathrate crystals comprising 3-formylcephem compound (1) and dimethylformamide prepared in Example 1 and 100 g of 3-formylcephem compound (1) prepared in Reference Example 1 (amorphous product). They were stored in a thermostatic chamber at 20 to 25° C. and in a refrigerator at 3 to 5° C. for a specified time to determine a factor of decomposition by high performance liquid chromatorgraphy (HPLC). It is clear from the table that the cephalosporin crystals of the invention scarcely causes decomposition and are excellent in stability.

Where [1] appears, read: stored in refrigerator at 3 to 5° C. for 48 days.
Setting [2] is: stored in thermostatic chamber at 20 to 25° C. for 14 days.

`COc1ccc(COC(=O)C2=C(C=O)CSC3C(NC(=O)Cc4ccccc4)C(=O)N23)cc1` (stereo not shown) [amorphous product, p-methoxybenzyl ester of 7-phenylacetamide-3-formyl-3-cephem-4-carboxylic acid]: the “Decomposition rate (%)” value runs as follows: under setting [1], 13%; under setting [2], 59%.
In the case of `COc1ccc(COC(=O)C2=C(C=O)CSC3C(NC(=O)Cc4ccccc4)C(=O)N23)cc1` (stereo not shown) [crystal, p-methoxybenzyl ester of 7-phenylacetamide-3-formyl-3-cephem-4-carboxylic acid], the “Decomposition rate (%)” value by setting is: under setting [1], 0%; under setting [2], 2%.

For the origin of these results see patent publication US6887992B2, “3-cephem derivative crystal” (Otsuka Kagaku Kabushiki Kaisha, priority 1999, dated 2005).
